US5563130A, “Methods for inhibiting angiogenesis, proliferation of endothelial or tumor cells and tumor growth” (American Cyanamid Company, priority 1994, dated 1996)
In brackets after ≈: the same amount, converted by molar mass.

Legend:
[1] = tested on: Adult Bovine Aortic Endothelial (ABAE) cell line; assay: Antiproliferative activity in ABAE cells, PROTOCOL 2 (48 h, SRB, single well); assay type: cell-based; conditions: Bos taurus; ABAE cells, 48 h, PROTOCOL 2
Description: (§1) PROTOCOL 1, 2, and 3 are described in greater detail hereinbelow. In general, according to PROTOCOLS 1 and 2, the target ABAE and/or Human Tumor cells are exposed to the compound of Formula I for 48 hours. PROTOCOL 3 exposes ABAE cell to the compound for 4 days. A detailed description of the protocol is as follows:
(§2) Antiproliferative Activity in Human Tumor and Adult Bovine Aortic Endothelial (ABAE) Cell Lines
(§3) The antiproliferative activity of the compounds of Formula I is evaluated in a panel comprised of human tumor cell lines and an adult bovine aortic endothelial cell line (ABAE) as listed in PROTOCOL 1. This assay is a modification of PROTOCOL 1. The modifications include:
(§4) 1) each concentration for each compound is tested in a single well;
(§5) 2) compounds are tested at 20, 4, 0.8, 0.16 microgram/ml and additionally in some experiments at 100 and 0.32 microgram/ml;
(§6) 3) samples are pipetted into a 96-well plate for each of the cell lines by a Beckman Biomek 1000 SL robot;
(§7) 4) after fixing with TCA each well is washed with 0.35 ml distilled water twice, not five times;
5) after staining with sulforhodamine B each well is washed 3 times, not five times;
6) the growth inhibition (I) as % of control, is calculated using the RS-1 data package (BBN Software), for every concentration of drug, as follows: [formula] wherein: T is optical density measurement for treated cells after 48 hours;
(§8) C is optical density measurement for untreated cells after 48 hours;
7) IC50 of growth inhibition is determined from graphically from dose response curves, as is known in the art.
Table 1 presents the results depicting the antiproliferative activity of the compounds of Formula I against an Adult Bovine Aortic Endothelial (ABAE) cell line, as evaluated by PROTOCOL 1 and PROTOCOL 2. The results are presented in terms of IC50 and are as follows.

[2] = tested on: Adult Bovine Aortic Endothelial (ABAE) cell line; assay: Antiproliferative activity in ABAE cells, PROTOCOL 3 (4 days, cell count); assay type: cell-based; conditions: Bos taurus, 96 h, PROTOCOL 3, FIG. 1, read-out: inhibits 50% of cell growth
Description: as §1
Antiproliferative Activity in Adult Bovine Aortic Endothelial (ABAE) Cell Line
ABAE cells are grown in DMEM media (Mediatech, Washington, D.C.) supplemented with 10% calf serum (Hyclone). ABAE cells are plated in 24-well dishes at 8,000 cells/well, followed by the addition of increasing concentrations of 7-[substituted amino]-9-[(substituted glycyl)amido]-6-demethyl-6-deoxytetracyclines. After four days, the cells are detached and counted. […] The growth inhibition (I) as % of control is calculated as follows: [formula] wherein: Nc is the number of cells in untreated wells;
Nt is the number of cells in treated wells;
No is the number of plated cells.
IC50 of growth inhibition is determined from the sets of I values plotted by Kaleidograph software (Abelbeck Software).
In addition FIG. 1, presents the dose response curve of the compound of Example 6 for the above ABAE cell line obtained by PROTOCOL 3.

[3] = tested on: A2780/DDP; assay: Antiproliferative activity in human ovarian tumor cell line A2780/DDP; assay type: cell-based; conditions: Homo sapiens, A2780/DDP, read-out: A2780/DDP/DDP IC50, PROTOCOL 1 and PROTOCOL 2
Description: as §1, §2
(§9) The antiproliferative activity of the compounds of Formula I of the present invention is evaluated in a panel comprised of human tumor cell lines and an adult bovine aortic endothelial cell line (ABAE). The human tumor cell lines are from:
(§10) All cell lines are maintained in log phase in RPMI 1640 media, supplemented with 5% fetal calf serum, penicillin/streptomycin and 2 mM L-glutamine. Cultures are renewed after 20 passages with cells from a fresh stock of batch-frozen early passage cells. Cell lines are routinely checked for mycoplasma contamination (Genprobe). In a laminar flow hood, cells (1-5×10^4) are plated into 96-well microtiter plates in a volume of 0.1 ml/well with a bulk microtiter dispenser (Denley). […] At this concentration, dimethylsulfoxide has no effect on cell growth. Compounds are added using a Tomtec dispenser which simultaneously dispenses from one 96-well plate, containing the drug dilutions, to the plates containing the cells. After two days of continuous drug exposure, 50% cold trichloroacetic acid (TCA) is added to 10% final concentration to fix the cells, and after 60 minutes at 4° C., the TCA is aspirated and the plates are washed 5 times with deionized water using a microtiter plate washer. The number of cells on the plate are quantitated using a protein dye-binding assay (Monks et al., 1991). A 0.4% solution of the dye, sulforhodamine B, in glacial acetic acid is added to the plates, and the plates are washed 5 times with 1% glacial acetic acid using the automatic plate washed. The bound stain is solubilized with 0.1 ml of 10 mM Tris base. The optical densities are read from an automatic spectrophotometric plate reader (Dynatech) directly to a main frame computer (VAX 8600).
(§11) Positive controls, that include standard chemotherapeutic drugs (i.e., adriamycin, cisplatin, etc.), are included in every experiment.
(§12) Background optical density measurements (complete media-cells, and complete media+drug-cells) are automatically subtracted from the appropriate control and test wells. Mean values and standard errors are determined from duplicate wells. A measure is also made of the optical density at time when the drugs are added. The number of cells after treatment (P), as % of control, is calculated for every concentration of drug, as follows: [formula] wherein: T is optical density measurement for treated cells after 48 hours;
as §8
(§13) Co is optical density measurement for cells at the time of drug addition.
(§14) IC50 of growth inhibition is calculated from the sets of P values using the RS-1 data package (BBN Software).
as §3, §4, §5, §6, §7
(§15) 5) after staining with sulforhodamine B each well is washed 3 times, not five times; […]

[4] = tested on: MIP; assay: Antiproliferative activity in human colon tumor cell line MIP; assay type: cell-based; conditions: Homo sapiens, PROTOCOL 1 and PROTOCOL 2
Description: as §1, §2, §9
(§16) 2) Colon tumors: MIP, CaCo2, and SW620.
as §10, §11, §12, §8, §13, §14, §3, §4, §5, §6, §7, §15

[5] = tested on: SW620; assay: Antiproliferative activity in human colon tumor cell line SW620; assay type: cell-based; conditions: Homo sapiens, SW-620, PROTOCOL 1 and PROTOCOL 2
Description: as §1, §2, §9, §16, §10, §11, §12, §8, §13, §14, §3, §4, §5, §6, §7, §15

[6] = tested on: Human Tumor Cell lines; assay: Antiproliferative activity in panel of human tumor cell lines; assay type: cell-based; conditions: average over the tested human tumor cell lines
Description: as §1, §2, §9, §16, §10, §11, §12, §8, §13, §14, §3, §4, §5, §6, §7, §15

[7] = tested on: angiogenesis; conditions: Cancer Research 51, 672-675, Brem et al; vs combination of heparin and cortisone; cited from earlier work
[8] = tested on: tumor; conditions: in conjunction with cancer chemotherapy or radiation therapy; Teicher et al; cited from earlier work

Question: With `CN(C)c1ccc(O)c2c1C[C@H]1C[C@H]3[C@H](N(C)C)C(O)=C(C(N)=O)C(=O)[C@@]3(O)C(O)=C1C2=O` [Minocycline, reference compound] as the compound, how does the IC50 [1] read?
Answer: ≥ 20 µg/mL

Question: What about the IC50 [2] of the same compound?
Answer: ~50 µg/mL (≈ 109 µM)

Question: What about the IC50 [3] of the same compound?
Answer: 6.1 µg/mL (≈ 13.3 µM)

Question: And the IC50 [4]?
Answer: 6.1 µg/mL (≈ 13.3 µM)

Question: And the IC50 [5]?
Answer: 6.5 µg/mL (≈ 14.2 µM)

Question: What about the IC50 [6] of the same compound?
Answer: 6.6 µg/mL (≈ 14.4 µM)

Question: And the “extent of angiogenesis inhibition” value [7]?
Answer: comparable to that of the combination therapy of heparin and cortisone

Question: And the number of metastases [8]?
Answer: reduced

Question: And the tumor growth [8]?
Answer: decreased
